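Growth conditions: 96-well plates. Treatment: test compound, 48 hours, 5 concentrations. Analysis: linear interpolation between bracketing concentrations; unreached endpoints set to highest concentration. GI50: concentration for 50% inhibition of growth. TGI marks complete inhibition of growth.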
Assays:
Assay in all cases: inhibition of tumour cell growth, NCI panel, 48 h
COLO 205 colon = test system: COLO 205 colon
DLD-1 colon = test system: DLD-1 colon
DMS 114 small cell lung = test system: DMS 114 small cell lung
LOX IMVI melanoma = test system: LOX IMVI melanoma
MDA-MB-231 breast = test system: MDA-MB-231 breast
NCI-H23 lung = test system: NCI-H23 lung
NCI-H522 lung = test system: NCI-H522 lung
NCI/ADR-RES ovarian = test system: NCI/ADR-RES ovarian
OVCAR-4 ovarian = test system: OVCAR-4 ovarian
UACC-257 melanoma = test system: UACC-257 melanoma

SMILES | TGI (COLO 205 colon) [µM] | TGI (DLD-1 colon) [µM] | TGI (DMS 114 small cell lung) [µM] | TGI (LOX IMVI melanoma) [µM] | TGI (MDA-MB-231 breast) [µM] | TGI (NCI-H23 lung) [µM] | TGI (NCI-H522 lung) [µM] | TGI (NCI/ADR-RES ovarian) [µM] | TGI (OVCAR-4 ovarian) [µM] | TGI (UACC-257 melanoma) [µM] | GI50 (COLO 205 colon) [µM]
Cc1cc2c(cc1C)[n+](=O)c(C(=O)/C=C/c1ccc3c(c1)OCO3)c(C)n2[O-] | > 100 | > 100 | > 84.5 | > 85.2 | > 100 | > 89.1 | 79.4 | > 100 | > 100 | > 100 | –
CC(CN1CC(=O)NC(=O)C1)N1CC(=O)NC(=O)C1 (stereo unspecified) | 443 | > 750 | 409 | > 750 | > 750 | > 750 | > 724 | > 698 | > 750 | > 750 | 25.3
